Among the data in a melting point compilation (Tetko et al.; mined from patent text by program, amines drawn as free bases though some values may be those of a salt) are melting point values, retold here.

In general, melting point refers to the temperature, or range, at which the solid turns liquid.

Some results are limits rather than exact numbers.

Compound `COc1cc(Nc2nccc(-c3cc(OC)c(OC)c(OC)c3)n2)cc(OC)c1OC` yielded a melting point of 187 °C.
`CCOC(=O)C1=C(C)NC(C)=C(C(=O)OCC)C1c1ccccc1C=Cc1ccc(Cl)cc1` yielded a melting point of 178 to 181 °C.
Then `CC1CCCCC1OC(=O)c1cc(NCSc2ccccc2)ccc1Cl` (stereo not drawn), with 143 to 144 °C.
Consider `Cc1cc(-c2ccc(S(N)(=O)=O)cc2)n(-c2ccc(F)cc2)c1`, for which the melting point fell in the range of 126 to 127 °C.
The compound `O=C(NC1(C(=O)O)CC1)OCCOC(=O)c1ccccc1` returned a melting point of 174 to 176 °C.
`Nc1cc(C(=O)OCc2ccccc2)ccc1OCc1ccccc1` had a melting point of 79 to 81 °C.
Take `O=C1CCC(N2Cc3c(CNC(=O)c4ccccn4)cccc3C2=O)C(=O)N1` (stereo not drawn): the melting point was in the range of 254 to 256 °C.
`Nc1ccccc1C(=O)c1ccc(F)cc1`: the melting point fell in the range of 125 to 127 °C.
Compound `O=C1CCC(c2ccccc2)(c2ccccc2)C2CN(C(Cc3ccccc3)=NCc3ccccc3)CC12` (stereo not drawn) gave a melting point of 165 °C.
`CCCC12CCC(=O)C=C1c1c(cc(OCC(=O)OCC)c(Cl)c1Cl)C2OC(C)=O` (stereo not drawn) yielded a melting point of 128 to 130 °C.
For `Cc1nn(-c2cc(Oc3ccc([N+](=O)[O-])cc3)c(Cl)cc2Cl)c(=O)n1C(F)F`, the melting point was in the range of 99 to 101 °C.
`COc1cc(C(=O)NCc2ccc3c(c2)C(=C2CCN(C)CC2)c2ccccc2C=C3)cc(OC)c1OC`: the melting point fell in the range of 200 to 202 °C.
As to `CCCCCNc1nc(SC)[nH]c2nccc1-2`, the melting point was 134 to 137 °C.
On to `COC(=O)c1ccc(N2CCNC2=O)cc1`, for which the melting point is more than 200 °C.
`CS(=O)(=O)n1cc(F)c(=O)[nH]c1=O`: the melting point is 223 to 224 °C.
In turn, `CN1Cc2c(CO)ncn2-c2ccc(F)cc2C1=O` gave a melting point of 221 to 223 °C.
Compound `Cn1cc(Br)cc(N)c1=O` showed a melting point of 104 to 105 °C.
Then `O=C1Nc2ccccc2C1=Cc1ccccc1`, with 177 to 179 °C; and `C[C@@H](NC(=O)c1sc(-c2ccc(Cl)cc2)cc1N)[C@](O)(Cn1cncn1)c1ccc(F)cc1F`, with 107 to 111 °C.
`COc1cc(S)c(C(C)=O)c(OC)c1` registered a melting point of 57 to 59 °C.
The compound `COc1cc2c(cc1OC)CN(CCCCNC(=O)c1cc(Br)ccc1OCCF)CC2` gave a melting point of 119 to 121 °C.
Turning to `CCCCOCCOc1ccc(-c2ccc(N3CCC(CC(=O)OCC)C3)c(C=C(C)C(=O)O)c2)cc1` (stereo not drawn), the melting point came out at 116 °C.
In the case of `COc1ccc(Nc2nc(Cl)nc(NC3CCCCCC3)n2)cc1Cl`, the melting point is 146 °C.
Then `O=[N+]([O-])c1ccc(-n2cccc2)c(Cl)c1`, with 54 to 55 °C; and `COCC1CCCN1S(=O)(=O)c1ccc2c(c1)C1(OCCCO1)C(=O)N2` (stereo not drawn), with 127 to 128 °C.
In turn, `Cc1c(-c2cc(F)cc(C(F)(F)F)c2)ccc2nc(N)nc(N)c12` displayed a melting point of 225 to 226 °C.
In turn, `Cc1cccc(C(O)C2C(c3ccccc3)CC(=O)N2C)c1` (stereo not drawn) registered a melting point of 163 to 165 °C.
Regarding `CCc1sc2c(c1C(=O)CCCN1CCC(c3noc4cc(F)ccc34)CC1)CCN(C(C)=O)C2`, the melting point was 93 to 95 °C.
Compound `COC(=O)c1ccc(C(C)O)cc1` (single isomer, unassigned; (+)) came in with a melting point of 52 to 53 °C.
In the case of `CCN(CC)CCNC(=O)c1cccc2c(=O)cc(-c3ccc([N+](=O)[O-])cc3)oc12` it was 207 to 209 °C; in that of `Cc1cc2nc3c(nc2cc1[N+](=O)[O-])SC(C#N)=C(C#N)S3`, 155 to 157 °C; in that of `CCOC(=O)C(C=C(C)CP(=O)(OCCCl)OCCCl)NC=O` (stereo not drawn), 47 to 49 °C.
Then `O=C(Nc1ccc(N2CCOCC2)cc1)c1ccccc1C(c1ccc(O)cc1)c1ccc(O)cc1`, with 151 to 155 °C; and `CCCCCCCCOC(=O)CCc1cc(C(C)(C)C)c2oc(-c3ccc(-c4nc5cc(CCC(=O)OCCCCCCCC)cc(C(C)(C)C)c5o4)s3)nc2c1`, with 68 to 70 °C.
Take `CC(=O)C(=NNc1ccc(OC(C)(C)C)cc1)Sc1ccc(Cl)cc1`: the melting point lay within 107 to 108 °C.
In the case of `CCN1C(=O)C(NC(=O)C(F)(F)F)CCc2c1ccc(Nc1ncc(Cl)c(N[C@@H]3CCCC[C@H]3NS(C)(=O)=O)n1)c2OC` (stereo partly drawn) it was 160 to 162 °C; in that of `Cc1c2n3ccc4c3c(c3cnccn3c-2cc(=O)c1=O)CCC4`, more than 80 °C; in that of `CCOC(=O)CN1CCC(CNC(=O)c2cc(Cl)c(N)[nH]c2=O)CC1`, 162 to 164 °C.
The compound `N#Cc1cccc(C=CC(=O)c2ccc(F)cc2)c1` showed a melting point of 170 to 172 °C.
`CN(C)S(=O)(=O)n1c(N)nc2ccc(C(N)=O)cc21` gave a melting point of 206 to 208 °C.
`CC1(C)CC1C(=O)NC(=CCCC(=O)O)C(=O)O` (stereo not drawn) displayed a melting point of 163 to 165 °C.
`CC1(C(=O)C(CC2CCCCC2)n2cncn2)COCOC1` (stereo not drawn): the melting point was in the range of 68 to 71 °C.
Take `O=C(O)CCC(O)c1ccc(-c2ccc(Cl)cc2)cc1` (stereo not drawn): the melting point lay within 134 to 135 °C.
Regarding `Nc1cc(C(F)(F)F)ccc1NC1CCCCC1`, the melting point came out at 70 °C.
As for `COc1cc(CO)cc(OC)c1OCc1nc(-c2ccccc2)oc1C`, the melting point fell in the range of 113 to 114 °C.
`Nc1cccnc1N1CCN(C(=O)c2ccc(C(=O)O)cn2)CC1` registered a melting point of 137 to 140 °C.
`CN(C)C(=O)c1nc(-c2ccccc2)nc2c1c1ccc(Cl)cc1n2C` had a melting point of 211 to 213 °C.
`NC(CCOc1ccc(C(=NO)C(=O)NC2CN(C(C(=O)O)c3ccc(OCc4ccccc4)cc3)C2=O)cc1)C(=O)O` (stereo not drawn): the melting point lay in the range of 164 to 168 °C.
`c1ccc(Oc2noc(-c3ccccc3)n2)cc1` had a melting point of 62 °C.
Regarding `CCOC(=O)C(Cc1c(OCC)noc1-c1ncn(C(c2ccccc2)(c2ccccc2)c2ccccc2)n1)(NC(C)=O)C(=O)OCC`, the melting point was in the range of 145 to 149 °C.
`COc1cc(C=C2NC(=O)NC2=O)cc(OC)c1` showed a melting point of 285 to 287 °C.
The compound `COC1(c2cc(F)cc(Sc3ccc(Cc4ccc(F)cc4)cc3)c2)CCOCC1` showed a melting point of 62 to 64 °C.
In turn, `CCOC(=O)c1ccc(-n2ccc(=O)cc2)cc1` yielded a melting point of 178 to 180 °C.
`CS(=O)(=O)OCCn1nccc1NC=O`: the melting point is 101 to 104 °C.
With `COc1cccc(CNC(=O)c2nc3ccc(OCC(=O)c4ccccc4)cc3c(=O)[nH]2)c1`, the melting point was 168 to 169 °C.
With `CCc1cnc(CSc2cnc(NC(C)=O)s2)o1`, the melting point is 147 to 148 °C.
`NC(=O)c1cc([N+](=O)[O-])c(Cl)cc1N1CC1` displayed a melting point of 155 °C.
Then `COC12C=CC(CC1)CC2C(=O)O` (stereo not drawn), with 77 to 81 °C; and `NC(=O)c1ccccc1NCc1ccc(Cl)cc1`, with 138 to 139 °C.
In the case of `CC(=O)Nc1cc(C2=NNC(=O)NC2C)ccc1Cl` (stereo not drawn) it was 251 to 253 °C; in that of `CCCCCCc1cc2c(s1)-n1c(C)nnc1CN=C2c1ccc(C)cc1`, 74 to 76 °C; in that of `CC(C)C[C@H](NC(=O)[C@H](Cc1ccccc1)NC(=O)CCC(=O)O)C(=O)O`, 156 to 158 °C.
In the case of `Cc1cc(NC(=O)Nc2c(C)cccc2C)no1` it was 200 °C.
